Source: US12466856B2, “Echinocandin analogues and preparation method therefor” (SHANGHAI SENHUI MEDICINE CO., LTD., priority 2019, dated 2025)
≈ marks a conversion by molar mass, not a printed value. Where two headings read alike, the source gives them in different places. Starred links: 1 amine or outer side, 2 acyl side, 3 side chain; linkers in the order of their positions; H or OH if unused. Positions of bridges follow the written chain, without caps; N, C: chain ends. Non-standard residues stand in square brackets, D forms with d. Residues, ends and D or L forms follow the SMILES beside them. *: point of attachment. Orn(4R-OH,5R-OCH2CH2NMe3+) = C[N+](C)(C)CCO[C@@H](N[*:3])[C@H](O)C[C@H](N[*:1])C(=O)[*:2]; pTerphenylCO(4''-OnC5H11) = CCCCCOc1ccc(-c2ccc(-c3ccc(C(=O)*)cc3)cc2)cc1; Orn(4R-OH,5R-OH) = O=C([C@H](C[C@@H](O)[C@@H](O)N[*:3])N[*:1])[*:2]; hTyr(3S-OH,4S-OH) = N[C@H](C(=O)O)[C@H](O)[C@@H](O)c1ccc(O)cc1; X1 = O=C(c1ccc(-c2ccc(-c3ccc(OCCCCCF)cc3)cc2)cc1)*; Pro(3S-OH,4S-Me) = C[C@H]1CN[C@H](C(=O)O)[C@H]1O; Hyp = O=C(O)[C@@H]1C[C@@H](O)CN1

What was measured:
Format in all cases: cell-based
[1] = tested on: Candida tropicalis ATCC 750; assay: MIC assay (CLSI M27-A3), Candida tropicalis ATCC 750; conditions: for MIC: Candida tropicalis, read-out: MIC, Candida tropicalis ATCC 750
Method: (§1) After a test compound was serially diluted, an MIC (minimum inhibitory concentration) assay was performed on the standard Candida strain and an MEC (minimum effective concentration) assay on the standard Aspergillus strain. The MIC assay was performed according to the guidelines of the Clinical and Laboratory Standards Institute (CLSI M27-A3) and the MEC assay according to the guidelines of the Clinical and Laboratory Standards Institute (CLSI M38-A2).
(§2) The frozen strain was passaged at least twice, and a single colony was picked and resuspended in normal saline or sterile water in a tube. The suspension was vortexed and adjusted to 0.5 McF (1×10^6 to 5×10^6 CFU/mL) using a spectrophotometer at wavelength 530 nm. The suspension was 50-fold diluted with normal saline and then 20-fold diluted with 1×RPMI 1640 broth (1×10^3 to 5×10^3 CFU/mL). 10 μL of the suspension was applied to an SDA plate for colony counting, with a range from about 10 to 50 single colonies.
(§3) At this time, the bacterium concentration in each well should be 0.5×10^3 to 2.5×10^3 CFU/mL.
(§4) For echinocandin drugs, Aspergillus was incubated at 28° C. for 21-26 h, and then the MEC results were read.
(§5) Yeast-type fungi: A disposable sealing film was applied to the 96-well plate, and the mixture was well mixed by shaking. Observation was performed through a plate reader with the naked eye. Comparisons were made to the growth control, and the minimum compound concentration corresponding to ≥50% growth inhibition was defined as MIC. Pictures were taken and saved using an automatic plate reader.

[2] = tested on: Candida albicans ATCC 90029; assay: MIC assay (CLSI M27-A3), Candida albicans ATCC 90029; conditions: for MIC: Candida albicans, read-out: MIC, Candida albicans ATCC 90029
Method: as §1, §2, §3, §4, §5

[3] = tested on: Candida parapsilosis ATCC 22019; assay: MIC assay (CLSI M27-A3), Candida parapsilosis ATCC 22019; conditions: for MIC: Lodderomyces parapsilosis, ATCC22019, 24 h, read-out: MIC, Candida parapsilosis ATCC 22019
Method: as §1, §2, §3, §4, §5

[4] = tested on: Meyerozyma guilliermondii ATCC 6260; assay: MIC assay (CLSI M27-A3), Meyerozyma guilliermondii ATCC 6260; conditions: for MIC: Meyerozyma guilliermondii, read-out: MIC, Meyerozyma guilliermondii ATCC 6260
Method: as §1, §2, §3, §4, §5

[5] = tested on: Candida glabrata ATCC 15126; assay: MIC assay (CLSI M27-A3), Candida glabrata ATCC 15126; conditions: for MIC: Nakaseomyces glabratus, read-out: MIC, Candida glabrata ATCC 15126
Method: as §1, §2, §3, §4, §5

Candida krusei ATCC 6258 = assay: MIC assay (CLSI M27-A3), Candida krusei ATCC 6258; conditions: for MIC: Pichia kudriavzevii, ATCC6258, 24 h, read-out: MIC, Candida krusei ATCC 6258
Method: as §1, §2, §3, §4, §5

[6] = tested on: Aspergillus flavus ATCC 28539; assay: MEC assay (CLSI M38-A2), Aspergillus flavus ATCC 28539; conditions: first batch; 28° C., 21-26 h
Method: The MIC assay was performed according to the guidelines of the Clinical and Laboratory Standards Institute (CLSI M27-A3) and the MEC assay according to the guidelines of the Clinical and Laboratory Standards Institute (CLSI M38-A2).
Colonies on the plate were covered with about 1 mL of 0.85% normal saline or sterile water (polysorbate 20 was added at a final concentration of 0.1%-0.01%). […] The homogeneous upper layer of the suspension was transferred to a new sterile tube, which was then sealed and vortexed for 15 s (be careful as the suspension may produce an aerosol when the cover is removed). The concentration of the suspension was adjusted until an OD value of 0.09-0.13 was achieved using a spectrophotometer at 530 nm. […] 100 μL of sample was added to each well of the 96-well plate within 2 h after dilution (the final spore concentration in the susceptibility testing plate was at 0.4×10^4 to 5×10^4 CFU/mL).
Aspergillus: For echinocandin drugs, comparisons were made to the growth control under a plate reader, and the minimum drug concentration that could cause the hyphae to form small, round, compact hyphal particles was defined as MEC. For accurate determination of MEC values, the plate must not be vortexed before reading.

[7] = tested on: Candida albicans (azole drug-resistant strain) R357; assay: MIC assay (CLSI M27-A3), Candida albicans azole drug-resistant strain R357; conditions: Candida albicans; second batch; read-out: MIC, Candida albicans (azole drug-resistant strain) R357
Method: as §1, §2, §3, §4, §5

[8] = tested on: Candida albicans (azole drug-resistant strain) R358; assay: MIC assay (CLSI M27-A3), Candida albicans azole drug-resistant strain R358; conditions: Candida albicans; second batch; read-out: MIC, Candida albicans (azole drug-resistant strain) R358
Method: as §1, §2, §3, §4, §5

[9] = tested on: Candida glabrata ATCC 36583; assay: MIC assay (CLSI M27-A3), Candida glabrata ATCC 36583; conditions: Nakaseomyces glabratus, ATCC36583; second batch; read-out: MIC, Candida glabrata ATCC 36583
Method: as §1, §2, §3, §4, §5

[10] = tested on: Candida tropicalis (amphotericin-resistant strain) ATCC 200956; assay: microbe, parasite or virus in culture; conditions: Candida tropicalis, ATCC200956, read-out: MIC, Candida tropicalis (amphotericin-resistant strain) ATCC 200956
Method: as §1, §2, §3, §4, §5

[11] = tested on: Candida albicans ATCC 44858; assay: MIC assay (CLSI M27-A3), Candida albicans ATCC 44858; conditions: Candida albicans, ATCC44858; second batch; read-out: MIC, Candida albicans ATCC 44858
Method: as §1, §2, §3, §4, §5

[12] = tested on: Candida albicans ATCC 90028; assay: MIC assay (CLSI M27-A3), Candida albicans ATCC 90028; conditions: Candida albicans, ATCC90028, second batch
Method: as §1, §2
At this time, the bacterium concentration in each well should be 0.5×10^3 to 2.5×10^3 CFU/mL. […]
as §5

[13] = ATCC750, first batch, 24 h, 35° C.
[14] = ATCC90029, first batch, 24 h, 35° C., ≥50% growth inhibition
[15] = ATCC6260, first batch, 24 h, 35° C.
[16] = ATCC15126, first batch, 24 h, 35° C., ≥50% growth inhibition
[17] = first batch, 24 h, 35° C., ≥50% growth inhibition
[18] = first batch, 24 h, 35° C., quality control strain

Row | Compound | MIC [3] [µg/mL] | MIC (Candida krusei ATCC 6258) [µg/mL] | MEC, Aspergillus flavus ATCC 28539 [6] [µg/mL] | MIC [1, 13] [µg/mL] | MIC [2, 14] [µg/mL] | MIC [4, 15] [µg/mL] | MIC [5, 16] [µg/mL] | other results
1 | CCCCCOc1ccc(-c2ccc(-c3ccc(C(=O)N[C@H]4C[C@@H](O)[C@@H](O)NC(=O)[C@@H]5[C@@H](O)[C@@H](C)CN5C(=O)[C@H]([C@@H](C)O)NC(=O)[C@H]([C@H](O)[C@@H](O)c5ccc(O)cc5)NC(=O)[C@@H]5C[C@@H](O)CN5C(=O)[C@H]([C@@H](C)O)NC4=O)cc3)cc2)cc1 [Anidulafungin, reference compound] ({pTerphenylCO(4''-OnC5H11)}-[Orn(4R-OH,5R-OH)]T[Hyp][hTyr(3S-OH,4S-OH)]T[Pro(3S-OH,4S-Me)]; lactam 1-C) | 0.5 (≈ 0.438 µM) | 0.063 (≈ 0.0553 µM) | 0.031 | – | – | – | – | MIC ([1]; ATCC750, 24 h): 0.016 µg/mL (≈ 0.014 µM); MIC ([2]; ATCC90029, 24 h): 0.016 µg/mL (≈ 0.014 µM); MIC ([4]; ATCC6260, 24 h): 1 µg/mL (≈ 0.877 µM); MIC ([5]; ATCC15126, 24 h): 0.125 µg/mL (≈ 0.11 µM)
2 | CCCCCOc1ccc(-c2ccc(-c3ccc(C(=O)N[C@H]4C[C@@H](O)[C@@H](OCC5CCCC[N+]5(C)C)NC(=O)[C@@H]5[C@@H](O)[C@@H](C)CN5C(=O)[C@H]([C@@H](C)O)NC(=O)[C@H]([C@H](O)[C@@H](O)c5ccc(O)cc5)NC(=O)[C@@H]5C[C@@H](O)CN5C(=O)[C@H]([C@@H](C)O)NC4=O)cc3)cc2)cc1 (stereo partly shown) [Example 2] | 1 | 0.125 | 0.031 | 0.016 | 0.125 | 2 | 0.125 | –
3 | CCCCCOc1ccc(-c2ccc(-c3ccc(C(=O)N[C@H]4C[C@@H](O)[C@@H](OCC[N+]5(C)CCCC5)NC(=O)[C@@H]5[C@@H](O)[C@@H](C)CN5C(=O)[C@H]([C@@H](C)O)NC(=O)[C@H]([C@H](O)[C@@H](O)c5ccc(O)cc5)NC(=O)[C@@H]5C[C@@H](O)CN5C(=O)[C@H]([C@@H](C)O)NC4=O)cc3)cc2)cc1 [Example 5] | 2 | 0.125 | 0.031 | 0.016 | 0.125 | 4 | 0.125 | –
4 | CCCCCOc1ccc(-c2ccc(-c3ccc(C(=O)N[C@H]4C[C@@H](O)[C@@H](OCC[N+]5(C)CCCCC5)NC(=O)[C@@H]5[C@@H](O)[C@@H](C)CN5C(=O)[C@H]([C@@H](C)O)NC(=O)[C@H]([C@H](O)[C@@H](O)c5ccc(O)cc5)NC(=O)[C@@H]5C[C@@H](O)CN5C(=O)[C@H]([C@@H](C)O)NC4=O)cc3)cc2)cc1 [Example 10] | 2 | 0.5 | 0.031 | 0.031 | 0.25 | 4 | 0.5 | –
5 | C[C@@H](O)[C@@H]1NC(=O)[C@H]([C@H](O)[C@@H](O)c2ccc(O)cc2)NC(=O)[C@@H]2C[C@@H](O)CN2C(=O)[C@H]([C@@H](C)O)NC(=O)[C@@H](NC(=O)c2ccc(-c3ccc(-c4ccc(OCCCCCF)cc4)cc3)cc2)C[C@@H](O)[C@@H](OCC[N+](C)(C)C)NC(=O)[C@@H]2[C@@H](O)[C@@H](C)CN2C1=O [Example 11] (X1-[Orn(4R-OH,5R-OCH2CH2NMe3+)]T[Hyp][hTyr(3S-OH,4S-OH)]T[Pro(3S-OH,4S-Me)]; lactam 1-C) | 4 | 0.5 | 0.031 | – | – | – | – | MIC ([1]; ATCC750, 24 h): 0.031 µg/mL; MIC ([2]; ATCC90029, 24 h): 0.125 µg/mL; MIC ([4]; ATCC6260, 24 h): 2 µg/mL; MIC ([5]; ATCC15126, 24 h): 0.5 µg/mL
6 | CCCCCOc1ccc(-c2ccc(-c3ccc(C(=O)N[C@H]4C[C@@H](O)[C@@H](O[C@H]5CC[N+](C)(C)C5)NC(=O)[C@@H]5[C@@H](O)[C@@H](C)CN5C(=O)[C@H]([C@@H](C)O)NC(=O)[C@H]([C@H](O)[C@@H](O)c5ccc(O)cc5)NC(=O)[C@@H]5C[C@@H](O)CN5C(=O)[C@H]([C@@H](C)O)NC4=O)cc3)cc2)cc1 [Example 26] | – | – | – | – | – | – | – | MIC [7]: 0.5 µg/mL; MIC [8]: 0.25 µg/mL; MIC [9]: 0.25 µg/mL; MIC [10]: 0.25 µg/mL; MIC [11]: 0.25 µg/mL; MIC ([12]; 24 h, 35° C., read-out: MIC, Candida albicans ATCC 90028): 0.25 µg/mL; MIC ([12]; + 50% human serum, read-out: MIC, Candida albicans + 50% human serum ATCC 90028): 0.25 µg/mL
7 | Caspofungin acetate [reference compound] | – | – | 0.031 | – | – | – | – | MIC, Candida tropicalis ATCC 750 ([1]; first batch, 24 h, 35° C.): 0.016 µg/mL; MIC, Candida albicans ATCC 90029 [2, 17]: 0.063 µg/mL; MIC, Candida parapsilosis ATCC 22019 [3, 18]: 1 µg/mL; MIC, Meyerozyma guilliermondii ATCC 6260 ([4]; first batch, 24 h, 35° C.): 1 µg/mL; MIC, Candida glabrata ATCC 15126 [5, 17]: 0.25 µg/mL; MIC, Candida krusei ATCC 6258 (Candida krusei ATCC 6258; [18]): 1 µg/mL
